Assay [1] concerns the target T1, human cytosolic phospholipase A2 (PLA2) (Homo sapiens, UniProt P47712).
T1 sequence (P47712 1-749): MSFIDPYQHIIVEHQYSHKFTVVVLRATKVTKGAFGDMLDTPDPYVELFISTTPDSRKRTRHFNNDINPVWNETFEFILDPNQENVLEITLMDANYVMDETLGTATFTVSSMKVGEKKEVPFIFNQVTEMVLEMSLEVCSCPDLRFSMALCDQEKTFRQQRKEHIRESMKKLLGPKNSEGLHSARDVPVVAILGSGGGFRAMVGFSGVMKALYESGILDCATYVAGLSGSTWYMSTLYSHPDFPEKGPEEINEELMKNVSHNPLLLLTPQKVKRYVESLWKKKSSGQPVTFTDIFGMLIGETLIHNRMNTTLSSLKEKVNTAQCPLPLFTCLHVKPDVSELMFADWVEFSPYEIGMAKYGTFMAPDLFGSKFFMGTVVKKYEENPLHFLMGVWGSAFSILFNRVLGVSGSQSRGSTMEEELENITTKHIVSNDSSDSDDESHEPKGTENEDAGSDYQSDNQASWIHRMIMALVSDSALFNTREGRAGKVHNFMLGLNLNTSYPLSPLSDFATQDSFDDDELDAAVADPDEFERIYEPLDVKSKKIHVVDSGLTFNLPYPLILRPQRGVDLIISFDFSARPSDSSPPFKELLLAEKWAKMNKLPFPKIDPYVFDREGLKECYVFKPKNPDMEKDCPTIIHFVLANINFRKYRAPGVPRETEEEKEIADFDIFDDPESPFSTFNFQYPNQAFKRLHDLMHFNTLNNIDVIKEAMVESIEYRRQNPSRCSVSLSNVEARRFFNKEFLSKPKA
Put plainly: in vitro inhibition of human cytosolic phospholipase A2 (PLA2). Format: biochemical.

Assay [2] deals with T2, human synovial phospholipase A2 (PLA2) (Homo sapiens, UniProt P14555).
T2 sequence (P14555 21-144): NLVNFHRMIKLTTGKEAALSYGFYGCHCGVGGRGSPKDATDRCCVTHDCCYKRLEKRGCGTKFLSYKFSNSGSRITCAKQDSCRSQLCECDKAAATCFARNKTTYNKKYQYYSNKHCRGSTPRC
The experiment in a line: in vitro inhibition of human synovial phospholipase A2 (PLA2). It counts as biochemical.

The target in assay [3] is binding of tritiated LTB4 to guinea pig lung membranes (Cavia porcellus, UniProt H0VYV8). Put plainly: biochemical. The following applies: read-out: pKi (mean -log Ki) (converted).
Chain of binding of tritiated LTB4 to guinea pig lung membranes (H0VYV8 1-348): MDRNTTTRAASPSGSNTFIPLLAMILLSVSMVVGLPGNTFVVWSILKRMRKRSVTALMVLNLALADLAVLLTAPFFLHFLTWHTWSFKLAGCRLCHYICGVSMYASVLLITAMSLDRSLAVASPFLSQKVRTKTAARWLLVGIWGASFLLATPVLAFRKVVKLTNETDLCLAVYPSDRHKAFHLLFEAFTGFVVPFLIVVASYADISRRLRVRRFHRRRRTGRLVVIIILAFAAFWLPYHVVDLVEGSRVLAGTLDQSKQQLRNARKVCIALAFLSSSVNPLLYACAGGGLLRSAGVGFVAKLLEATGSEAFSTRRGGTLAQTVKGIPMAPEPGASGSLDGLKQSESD
Procedure: The effectiveness of compounds of Formula I to inhibit the binding of tritiated LTB4 to guinea pig lung membranes was determined as follows.
The binding reaction was terminated by the addition of 1 mL ice cold wash buffer (25 mM Tris-HCl, pH 7.5) followed immediately by vacuum filtration over Whatman GF/C glass fiber filters using a Brandel (Gaithersburg, Md.) 48 place harvester. The filters were washed three times with 1 mL of wash buffer. Retained radioactivity was determined by liquid scintillation counting at 50% counting efficiency using Ready Protein Plus cocktail (Beckman, Fullerton, Calif.). Nondisplaceable binding was determined in the presence of 1 μM LTB4 and was usually less than 10% of total binding. […] The data reported below is the mean -log Ki, otherwise known as the pKi, for n experiments.

Consider `CCc1cc(-c2ccccc2)c(O)cc1OCCCCCC(C)(C)c1nn[nH]n1.[Na]`, for which the “inhibition of human cytosolic PLA2” value in assay [1] is given as “in vitro inhibitors”. For the same compound, the “inhibition of human synovial PLA2” value in assay [2] is reported as “in vitro inhibitors”.

In general, Ki refers to the dissociation constant of the complex between target and ligand, obtained from inhibition or displacement. Take `CCCc1c(OCCCOc2cc(O)c(-c3ccc(F)cc3)cc2CC)ccc2c1OC(C(=O)O)CC2` (centres unmarked) [Example 55, 8-Propyl-7-[3-[4-(4-fluorophenyl)-2-ethyl-5-hydroxyphenoxy]propoxy]-3,4-dihydro-2H-1-benzopyran-2-carboxylic acid]: the “inhibition of human cytosolic PLA2” value in assay [1] is reported as “in vitro inhibitors”. Also, the “inhibition of human synovial PLA2” value in assay [2] is “in vitro inhibitors”. Further, the Ki in assay [3] is 2.95 nM.

As to `CCCc1c(OCCCOc2cc(O)c(-c3ccccc3)cc2CC)cccc1OC(C)C(=O)O` (centres unmarked) [Example 56, 2-[3-[3-[(5-Ethyl-2-hydroxy[1,1'-biphenyl]-4-yl)oxy]propoxy]-2-propylphenoxy]propanoic acid], the “inhibition of human cytosolic PLA2” value in assay [1] was “in vitro inhibitors”. Moreover, the “inhibition of human synovial PLA2” value in assay [2] was “in vitro inhibitors”. The inhibitory constant (Ki) in assay [3] is 9.33 nM.

These data come from patent publication US5462954A, “Substituted phenyl phenol leukotriene antagonists” (Eli Lilly and Company, priority 1994, dated 1995).
